This note sets out measurements from ChEMBL document CHEMBL6087469, “Targeting Oncogenic RET Kinase by Simultaneously Inhibiting Kinase Activity and Degrading the Protein” (J Med Chem, 2025).

Calls of active or inactive are those of the source. The calls are words filed in the database; no cut-off is given here.

Data set [1] concerns TPC1. The data set can be described thus: Inhibition of cell proliferation in human TPC1 cells measured after 5 days by Cell Titer Glo assay. Conditions: time 5.0 day. It is filed as functional, cell-based.
A short description of data set [2]: AUC (0 to infinity) in mouse at 50 mg/kg, ip measured for 48 hrs by LC/MS/MS analysis. The format is ADME, organism-based. To be noted: in vivo.
Data set [3] is described as follows: Cmax in mouse at 50 mg/kg, ip measured for 48 hrs by LC/MS/MS analysis. To be noted: in vivo. It is filed as ADME, organism-based.
A short description of data set [4]: Tmax in mouse at 50 mg/kg, ip measured for 48 hrs by LC/MS/MS analysis. The format is ADME, organism-based. To be noted: in vivo.
A short description of data set [5]: Half life in mouse at 50 mg/kg, ip measured for 48 hrs by LC/MS/MS analysis. The format is ADME, organism-based. To be noted: in vivo.
The test system of data set [6] is TPC1. The data set can be described thus: Downregulation of CDK2 expression in human TPC1 cells at 200 nM incubated for 24 hrs by TMT mass spectrometric proteomic analysis. It is filed as functional, cell-based.
In data set [7] the test system is TPC1. The experiment in a line: Downregulation of AURKA expression in human TPC1 cells at 200 nM incubated for 24 hrs by TMT mass spectrometric proteomic analysis. It is filed as functional, cell-based.
In data set [8] the test system is TPC1. The data set can be described thus: Downregulation of AURKB expression in human TPC1 cells at 200 nM incubated for 24 hrs by TMT mass spectrometric proteomic analysis. The format is functional, cell-based.
The subject of data set [9] is TPC1. The experiment in a line: Downregulation of MKI67 expression in human TPC1 cells at 200 nM incubated for 24 hrs by TMT mass spectrometric proteomic analysis. The format is functional, cell-based.
In data set [10] the test system is TPC1. The data set can be described thus: Downregulation of CDKN1B expression in human TPC1 cells at 200 nM incubated for 24 hrs by TMT mass spectrometric proteomic analysis. It is filed as functional, cell-based.
Data set [11] deals with Coiled-coil domain-containing protein 6/Tyrosine-protein kinase receptor RET (Homo sapiens) (UniProt P07949+Q16204). The experiment in a line: Inhibition of CCDC6-RET fusion kinase activity in human TPC1 cells upto 250 nM incubated for 24 hrs by immunoblotting analysis. The format is cell-based. For orientation: Immunoblotting shows a protein as a band on a membrane.
Chain of Coiled-coil domain-containing protein 6/Tyrosine-protein kinase receptor RET (Homo sapiens) (P07949 29-1114 limits assumed): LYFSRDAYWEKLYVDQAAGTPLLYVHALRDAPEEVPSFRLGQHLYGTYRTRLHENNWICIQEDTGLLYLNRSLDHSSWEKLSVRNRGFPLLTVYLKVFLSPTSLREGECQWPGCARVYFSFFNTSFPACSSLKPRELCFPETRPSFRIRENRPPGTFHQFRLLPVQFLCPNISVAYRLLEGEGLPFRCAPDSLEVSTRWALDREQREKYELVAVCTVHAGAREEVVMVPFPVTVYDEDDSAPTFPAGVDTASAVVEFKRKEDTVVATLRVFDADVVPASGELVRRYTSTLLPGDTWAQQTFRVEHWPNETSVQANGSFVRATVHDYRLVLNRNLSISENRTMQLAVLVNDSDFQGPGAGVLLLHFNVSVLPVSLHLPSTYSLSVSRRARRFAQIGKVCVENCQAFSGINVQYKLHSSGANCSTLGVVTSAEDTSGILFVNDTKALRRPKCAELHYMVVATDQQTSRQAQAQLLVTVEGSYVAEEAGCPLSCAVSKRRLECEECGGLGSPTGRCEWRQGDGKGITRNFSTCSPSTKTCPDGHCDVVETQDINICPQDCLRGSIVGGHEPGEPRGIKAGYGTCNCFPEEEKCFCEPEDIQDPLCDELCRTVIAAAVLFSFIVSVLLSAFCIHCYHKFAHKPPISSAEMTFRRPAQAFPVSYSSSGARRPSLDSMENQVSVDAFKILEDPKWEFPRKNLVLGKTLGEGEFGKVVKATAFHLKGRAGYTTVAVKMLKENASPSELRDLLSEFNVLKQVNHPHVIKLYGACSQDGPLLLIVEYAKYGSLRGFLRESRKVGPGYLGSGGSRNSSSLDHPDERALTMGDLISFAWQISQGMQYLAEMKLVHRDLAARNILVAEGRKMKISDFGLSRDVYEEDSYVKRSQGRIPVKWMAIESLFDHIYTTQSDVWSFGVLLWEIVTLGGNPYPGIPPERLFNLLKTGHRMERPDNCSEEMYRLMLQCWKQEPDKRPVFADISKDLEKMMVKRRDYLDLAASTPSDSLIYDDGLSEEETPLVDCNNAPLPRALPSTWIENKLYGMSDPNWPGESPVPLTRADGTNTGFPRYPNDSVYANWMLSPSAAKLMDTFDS
Chain of Coiled-coil domain-containing protein 6/Tyrosine-protein kinase receptor RET (Homo sapiens) (Q16204 2-474 partner limits assumed): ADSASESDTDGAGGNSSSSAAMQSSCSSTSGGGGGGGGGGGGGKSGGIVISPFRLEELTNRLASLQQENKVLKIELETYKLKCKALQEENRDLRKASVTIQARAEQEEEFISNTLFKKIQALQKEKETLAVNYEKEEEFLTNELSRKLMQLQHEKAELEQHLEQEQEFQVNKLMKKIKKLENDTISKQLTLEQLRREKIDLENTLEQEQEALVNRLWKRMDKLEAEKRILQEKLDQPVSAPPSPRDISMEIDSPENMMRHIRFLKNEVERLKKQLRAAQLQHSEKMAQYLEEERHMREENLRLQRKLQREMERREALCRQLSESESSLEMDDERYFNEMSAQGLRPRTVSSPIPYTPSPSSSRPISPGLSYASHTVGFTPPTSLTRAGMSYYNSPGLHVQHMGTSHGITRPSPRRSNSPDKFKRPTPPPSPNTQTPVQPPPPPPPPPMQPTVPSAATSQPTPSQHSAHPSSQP
The test system of data set [12] is TPC1. The experiment in a line: Induction of CCDC6-RET fusion degradation in human TPC1 cells upto 250 nM incubated for 24 hrs by immunoblotting analysis. It is filed as cell-based.

As usually defined, the AUC(0-inf) is the area under the concentration-time curve extrapolated to infinity. A higher AUC(0-inf) goes with high exposure. What is called Cmax is the peak of the concentration-time curve. One may read the Tmax as the time at which the peak concentration occurs. Usually half-life stands for the time in which the quantity being followed falls by half. A higher half-life goes with slow loss. Turning to `COc1ccc(CN2C3CC2CN(c2ccc(-c4cc(OCCCC(=O)N5CCC(N6CCC(C#Cc7ccc(C(=O)NCC#Cc8ccc9c(c8)CN(C8CCC(=O)NC8=O)C9=O)cc7)CC6)CC5)cn5ncc(C#N)c45)cn2)C3)cn1` (stereo not drawn), the inhibition entry in the data set on TPC1 [1] was “Active”. For the same molecule, the AUC(0-inf) in data set [2] was found to be 3670 ng·h/mL. The highest concentration (Cmax) in data set [3] (read-out: Cmax) worked out at 1140 ng/mL. Besides, the Tmax in data set [4] (read-out: Tmax) stood at 1 h. This molecule gave a half-life in [5] of 7.3 h.

A word on the AUC: it is the area under the concentration-time curve, a measure of exposure. Low values mean low exposure, high ones high exposure. `COc1ccc(CN2C3CC2CN(c2ccc(-c4cc(OCCCC(=O)NC5CC6(CCN(c7ccc(C(=O)NCCOc8ccc(C9CCC(=O)NC9=O)cc8)cc7)CC6)C5)cn5ncc(C#N)c45)cn2)C3)cn1` (stereo not drawn): the inhibition result with TPC1 [1] was “Active”. The same molecule registered an AUC in data set [2] (ip, 50 mg/kg, 48 h) of 2342.1 ng·h/mL. For the same molecule, in [3] (ip, 50 mg/kg, 48 h), the highest concentration (Cmax) worked out at 44.9 ng/mL. Also, the Tmax in [4] (ip, 50 mg/kg, 48 h) was determined as 0.17 h. In data set [5] (ip, 50 mg/kg, 48 h), this molecule returned a t1/2 of 0.25 h.

`COc1ccc(CN2C3CC2CN(c2ccc(-c4cc(OCC(C)(C)O)cn5ncc(C#N)c45)cn2)C3)cn1`: the outcome in the data set on TPC1 [6], in the data set with TPC1 [7], in the data set with TPC1 [8], in the data set on TPC1 [9] and with TPC1 [10] was Active.

Turning to `COc1ccc(CN2C3CC2CN(c2ccc(-c4cc(OCCCCCCCC(=O)N5CCN(c6ccc(C(=O)NCCOc7ccc(C8CCC(=O)N(C)C8=O)cc7)cn6)CC5)cn5ncc(C#N)c45)cn2)C3)cn1` (stereo not drawn), the inhibition entry (in the data set on TPC1 [1]; in [11]) was “Active” throughout. Besides, the result in the data set on TPC1 [12] was inactive.
